From US20260062422A1 (Halda Therapeutics OpCo, Inc., priority 2022, published 2026)

What was measured:
VCaP cells = experiment: Cellular growth inhibition assay for VCaP cells, CellTiter-Glo; assay type: cell-based, human; details: 72 hours treatment, CellTiter-Glo 2.0
Method in brief: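 GI50 values come from four-parameter curve fits of luminescence data normalized to a zero baseline. Compound, in medium with 0.5% DMSO, was added one day after plating and left for 72 h before CellTiter-Glo 2.0 addition.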

[1] = system: T-Rex 293 cell line SC3 cells lacking increased expression of androgen receptor protein; experiment: Cellular growth inhibition, T-Rex 293 SC3 cells without doxycycline, CellTiter-Glo; assay type: cell-based; details: T-Rex 293 SC3 cells not exposed to doxycycline, CellTiter-Glo 2.0
Method in brief: (§1)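 GI50 came from a four-parameter fit of CellTiter-Glo 2.0 luminescence after 72 h compound exposure (0.5% DMSO, 37 °C), dosing 24 h post-seeding. SC3 clone cells (2500/well), transfected with wild-type androgen receptor, grew in charcoal-stripped serum medium lacking phenol red, induced with 10 ng/mL doxycycline or left uninduced.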

T47D cells = experiment: Cellular growth inhibition assay for T47D cells, CellTiter-Glo; assay type: cell-based, human; details: 72 hours treatment, CellTiter-Glo 2.0 cell viability
Method in brief: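 Growth inhibition as GI50, fitted with four parameters to CellTiter-Glo luminescence after 72 h of compound exposure (0.5% DMSO). Cells were T47D, grown in insulin-supplemented (0.2 units/mL) DMEM with 10% FBS and treated one day post-seeding.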

[2] = system: T-Rex 293 cell line SC3 cells having increased expression of androgen receptor protein due to exposure to doxycycline; experiment: Cellular growth inhibition, T-Rex 293 SC3 cells with doxycycline (androgen receptor induced), CellTiter-Glo; assay type: cell-based; details: T-Rex 293 SC3 cells with 10 ng/mL doxycycline (increased androgen receptor expression)
Method in brief: as §1

SMILES | GI50 (VCaP cells; Homo sapiens, VCaP, 72 h) [µM] | GI50 ([1]; 72 h) [µM] | GI50 (T47D cells; Homo sapiens, T47D, 72 h) [µM] | GI50 ([2]; 72 h) [µM] | GI50 ([1]; 72 hours) [µM] | GI50 (T47D cells) [µM] | GI50 (VCaP cells) [µM] | GI50 ([2]; 72 hours) [µM]
Cc1sc2c(c1C)C(c1ccc(CN(C)C(=O)[C@@H]3CC[C@@H](c4ncc(C(=O)N[C@H]5C(C)(C)[C@H](Oc6ccc(C#N)c(Cl)c6)C5(C)C)cn4)C3)cc1)=N[C@@H](Cc1ncco1)c1nnc(C)n1-2 [Compound I-372] | < 0.5 | > 3 | 0.5 to 1.5 | < 0.5 |  |  |  | 
Cc1sc2c(c1C)C(c1ccc(N3CC(C4CCCN(c5ncc(C(=O)N[C@H]6C(C)(C)[C@H](Oc7ccc(C#N)c(Cl)c7)C6(C)C)cn5)C4)C3)cc1)=N[C@@H](C)c1nnc(C)n1-2 (some centres unmarked) [Compound I-473] | > 3 |  |  | < 0.5 | > 3 | > 3 |  | 
Cc1sc2c(c1C)C(c1ccc(C(=O)N3CCC(C(=O)c4ncc(C(=O)N[C@H]5C(C)(C)[C@H](Oc6ccc(C#N)c(Cl)c6)C5(C)C)cn4)CC3)cc1)=N[C@@H](Cc1ncco1)c1nnc(C)n1-2 [Compound I-382] |  |  |  |  | > 3 | > 3 | > 3 | < 0.5
Cc1sc2c(c1C)C(c1ccc(CC3CN(C4CCN(c5ncc(C(=O)N[C@H]6C(C)(C)[C@H](Oc7ccc(C#N)c(Cl)c7)C6(C)C)cn5)C4)C3)cc1)=N[C@@H](Cc1ncco1)c1nnc(C)n1-2 (some centres unmarked) [Compound I-154] | < 0.5 | < 0.5 | < 0.5 | < 0.5 |  |  |  | 
Cc1sc2c(c1C)C(c1ccc(O[C@@H]3CCC4(C3)CN(c3ncc(C(=O)N[C@H]5C(C)(C)[C@H](Oc6ccc(C#N)c(Cl)c6)C5(C)C)cn3)C4)cc1)=N[C@@H](Cc1ncco1)c1nnc(C)n1-2 [Compound I-191] | < 0.5 | < 0.5 | < 0.5 | < 0.5 |  |  |  | 
CC[C@@H]1N=C(c2ccc(CC3CCC4(C3)CN(c3ncc(C(=O)N[C@H]5C(C)(C)[C@H](Oc6ccc(C#N)c(Cl)c6)C5(C)C)cn3)CCO4)cc2)c2c(sc(C)c2C)-n2c(C)nnc21 (some centres unmarked) [Compound I-613] |  |  |  |  | > 3 | 0.5 to 1.5 | < 0.5 | < 0.5
Cc1sc2c(c1C)C(c1ccc(CCC[C@@H]3CCCN(c4ncc(C(=O)N[C@H]5C(C)(C)[C@H](Oc6ccc(C#N)c(Cl)c6)C5(C)C)cn4)C3)cc1)=N[C@@H](C)c1nnc(C)n1-2 [Compound I-353] | > 3 | > 3 | > 3 | < 0.5 |  |  |  | 
Cc1sc2c(c1C)C(c1ccc([C@H]3C[C@H](C4CCN(c5ncc(C(=O)N[C@H]6C(C)(C)[C@H](Oc7ccc(C#N)c(Cl)c7)C6(C)C)cn5)CC4)C3)cc1)=N[C@@H](Cc1ncco1)c1nnc(C)n1-2 [Compound I-399] | 0.5 to 1.5 | > 3 | < 0.5 | < 0.5 |  |  |  | 
Cc1sc2c(c1C)C(c1ccc(OC3CCN(c4ncc(C(=O)N[C@H]5C(C)(C)[C@H](Oc6ccc(C#N)c(Cl)c6)C5(C)C)cn4)CC3)cc1)=N[C@@H](C)c1nnc(C)n1-2 [Compound I-261] | 0.5 to 1.5 | 1.5 to 3 | 0.5 to 1.5 | < 0.5 |  |  |  | 
Cc1sc2c(c1C)C(c1ccc(C3CCC4(CC3)CCN(c3ncc(C(=O)N[C@H]5C(C)(C)[C@H](Oc6ccc(C#N)c(Cl)c6)C5(C)C)cn3)C4)cc1)=N[C@@H](Cc1ncco1)c1nnc(C)n1-2 [Compound I-671, N-[3-(3-chloro-4-cyano-phenoxy)-2,2,4,4-tetramethyl-cyclobutyl]-2-[8-[4-[(9S)-4,5,13-trimethyl-9-(oxazol-2-ylmethyl)-3-thia-1,8,11,12-tetrazatricyclo[8.3.0.02,6]trideca-2(6),4,7,10,12-pentaen-7-yl]phenyl]-2-azaspiro[4.5]decan-2-yl]pyrimidine-5-carboxamide] | < 0.5 | < 0.5 | < 0.5 | < 0.5 |  |  |  | 
Cc1sc2c(c1C)C(c1ccc(C(=O)N3CC[C@@]4(CCCN(c5ncc(C(=O)N[C@H]6C(C)(C)[C@H](Oc7ccc(C#N)c(Cl)c7)C6(C)C)cn5)C4)C3)cc1)=N[C@@H](Cc1ncco1)c1nnc(C)n1-2 [Compound I-256] | > 3 | > 3 | > 3 | > 3 |  |  |  | 
Cc1sc2c(c1C)C(c1ccc(-c3ncc(C4CCN(c5ncc(C(=O)N[C@H]6C(C)(C)[C@H](Oc7ccc(C#N)c(Cl)c7)C6(C)C)cn5)CC4)o3)cc1)=N[C@@H](Cc1ncco1)c1nnc(C)n1-2 [Compound I-442] | < 0.5 | > 3 | < 0.5 | < 0.5 |  |  |  | 
Cc1sc2c(c1C)C(c1ccc(O[C@H]3COC4(CCN(c5ncc(C(=O)N[C@H]6C(C)(C)[C@H](Oc7ccc(C#N)c(Cl)c7)C6(C)C)cn5)C4)C3)cc1)=N[C@@H](Cc1ncco1)c1nnc(C)n1-2 (some centres unmarked) [Compound I-195] | < 0.5 | < 0.5 | < 0.5 | < 0.5 |  |  |  | 
CCNC(=O)C[C@@H]1N=C(c2ccc(OCCN(C)c3ncc(C(=O)N[C@H]4C(C)(C)[C@H](Oc5ccc(C#N)c(Cl)c5)C4(C)C)cn3)cc2)c2c(sc(C)c2C)-n2c(C)nnc21 [Compound I-80] | < 0.5 | 0.5 to 1.5 | 0.5 to 1.5 | < 0.5 |  |  |  | 
Cc1sc2c(c1C)C(c1ccc(N3CC(CC4CCN(c5ccc(C(=O)N[C@H]6C(C)(C)[C@H](Oc7ccc(C#N)c(Cl)c7)C6(C)C)nc5)CC4)C3)cc1)=N[C@@H](C)c1nnc(C)n1-2 [Compound I-449] | > 3 | > 3 | 0.5 to 1.5 | > 3 |  |  |  | 
Cc1sc2c(c1C)C(c1ccc(N3CC4(C3)CC3(CCN(c5ncc(C(=O)N[C@H]6C(C)(C)[C@H](Oc7ccc(C#N)c(Cl)c7)C6(C)C)cn5)CC3)C4)cc1)=N[C@@H](Cc1ncco1)c1nnc(C)n1-2 [Compound I-388] | < 0.5 | > 3 | < 0.5 | < 0.5 |  |  |  | 
Cc1sc2c(c1C)C(c1ccc(C[C@@H]3CCCN(c4ncc(C(=O)N[C@H]5C(C)(C)[C@H](Oc6ccc(C#N)c(Cl)c6)C5(C)C)cn4)C3)cc1)=N[C@@H](Cc1ncco1)c1nnc(C)n1-2 [Compound I-296] | < 0.5 | 0.5 to 1.5 | < 0.5 | < 0.5 |  |  |  | 
Cc1sc2c(c1C)C(c1ccc(CCO[C@H]3CCCN(c4ncc(C(=O)N[C@H]5C(C)(C)[C@H](Oc6ccc(C#N)c(Cl)c6)C5(C)C)cn4)C3)cc1)=N[C@@H](C)c1nnc(C)n1-2 [Compound I-354] | < 0.5 | > 3 | 1.5 to 3 | < 0.5 |  |  |  | 
Cc1sc2c(c1C)C(c1ccc(CNC(=O)CN(C)c3ncc(C(=O)N[C@H]4C(C)(C)[C@H](Oc5ccc(C#N)c(Cl)c5)C4(C)C)cn3)cc1)=N[C@@H](Cc1ncco1)c1nnc(C)n1-2 [Compound I-266] | < 0.5 | > 3 | 0.5 to 1.5 | < 0.5 |  |  |  | 
CCNC(=O)C[C@@H]1N=C(c2ccc(OC3CC(N(C)C4CCN(c5ncc(C(=O)N[C@H]6C(C)(C)[C@H](Oc7ccc(C#N)c(Cl)c7)C6(C)C)cn5)CC4)C3)cc2)c2c(sc(C)c2C)-n2c(C)nnc21 (some centres unmarked) [Compound I-82] | 0.5 to 1.5 | 0.5 to 1.5 | < 0.5 | < 0.5 |  |  |  | 
Cc1sc2c(c1C)C(c1ccc(N3CC(C4CCN(c5ncc(C(=O)N[C@H]6C(C)(C)[C@H](Oc7ccc(C#N)c(Cl)c7)C6(C)C)cn5)C4)C3)cc1)=N[C@@H](C)c1nnc(C)n1-2 (some centres unmarked) [Compound I-617] |  |  |  |  | < 0.5 | < 0.5 | < 0.5 | < 0.5
CC[C@@H]1N=C(c2ccc(CC3CCC4(C3)CN(c3ncc(C(=O)N[C@H]5C(C)(C)[C@H](Oc6ccc(C#N)c(Cl)c6)C5(C)C)cn3)CCO4)cc2)c2c(sc(C)c2C)-n2c(C)nnc21 (some centres unmarked) [Compound I-614] |  |  |  |  | > 3 | < 0.5 | < 0.5 | < 0.5
Cc1sc2c(c1C)C(c1ccc(CCCOC3CCN(c4ncc(C(=O)N[C@H]5C(C)(C)[C@H](Oc6ccc(C#N)c(Cl)c6)C5(C)C)cn4)CC3)cc1)=N[C@H](Cc1ccccn1)c1nnc(C)n1-2 [Compound I-213] | < 0.5 | > 3 | < 0.5 | < 0.5 |  |  |  | 
COC[C@@H]1N=C(c2ccc(OC3CC4(CCCN(c5ncc(C(=O)N[C@H]6C(C)(C)[C@H](Oc7ccc(C#N)c(Cl)c7)C6(C)C)cn5)C4)C3)cc2)c2c(sc(C)c2C)-n2c(C)nnc21 [Compound I-568] | < 0.5 | > 3 | < 0.5 | < 0.5 |  |  |  | 
Cc1sc2c(c1C)C(c1ccc(C[C@H]3CC[C@@H]4CN(c5ncc(C(=O)N[C@H]6C(C)(C)[C@H](Oc7ccc(C#N)c(Cl)c7)C6(C)C)cn5)CCN4C3)cc1)=C[C@H](Cc1ncco1)c1nnc(C)n1-2 [Compound I-306] | < 0.5 | < 0.5 | < 0.5 | < 0.5 |  |  |  | 
COCC[C@@H]1N=C(c2ccc(CC3CC4(CCN(c5ccc(C(=O)N[C@H]6C(C)(C)[C@H](Oc7ccc(C#N)c(Cl)c7)C6(C)C)cn5)CC4)C3)cc2)c2c(sc(C)c2C)-n2c(C)nnc21 [Compound I-599] | < 0.5 | > 3 | < 0.5 | < 0.5 |  |  |  | 
